# From the CheMixHub viscosity set
# ± gives the uncertainty stated by the source.
# Assay: xn = mol fraction of the nth substance listed
smiles,measurement,setting,value
CC(=O)c1ccccc1 + CCCC(C)O,viscosity,"298.15 K, 101 kPa, x1 = 0.2502",1.875 ± 0.014 mPa·s
same,viscosity,"298.15 K, 101 kPa, x1 = 0.7547",1.605 ± 0.012 mPa·s
[Al+3].[Cl-].[Cl-].[Cl-] + CCCC(N)=O,viscosity,"313 K, 101 kPa, x1 = 0.5",28.41 ± 0.64 mPa·s
same,viscosity,"313 K, 101 kPa, x1 = 0.52",23.88 ± 0.54 mPa·s
same,viscosity,"313 K, 101 kPa, x1 = 0.57",23.18 ± 0.52 mPa·s
same,viscosity,"313 K, 101 kPa, x1 = 0.6",24.75 ± 0.56 mPa·s
same,viscosity,"313 K, 101 kPa, x1 = 0.63",27.31 ± 0.61 mPa·s
same,viscosity,"323 K, 101 kPa, x1 = 0.5",20.42 ± 0.46 mPa·s
same,viscosity,"323 K, 101 kPa, x1 = 0.52",17.69 ± 0.4 mPa·s
same,viscosity,"323 K, 101 kPa, x1 = 0.57",17.62 ± 0.39 mPa·s
same,viscosity,"323 K, 101 kPa, x1 = 0.6",17.72 ± 0.4 mPa·s
same,viscosity,"323 K, 101 kPa, x1 = 0.63",19.85 ± 0.45 mPa·s
CCCCCCCCC + CCCCCC,viscosity,"298.15 K, 101.33 kPa, x2 = 0.1073",0.6111 ± 0.016 mPa·s
same,viscosity,"298.15 K, 101.33 kPa, x2 = 0.21",0.5693 ± 0.015 mPa·s
same,viscosity,"298.15 K, 101.33 kPa, x2 = 0.2873",0.5367 ± 0.015 mPa·s
same,viscosity,"298.15 K, 101.33 kPa, x2 = 0.4024",0.5017 ± 0.014 mPa·s
same,viscosity,"298.15 K, 101.33 kPa, x2 = 0.5044",0.4527 ± 0.013 mPa·s
same,viscosity,"298.15 K, 101.33 kPa, x2 = 0.6074",0.42 ± 0.012 mPa·s
same,viscosity,"298.15 K, 101.33 kPa, x2 = 0.7035",0.3874 ± 0.012 mPa·s
same,viscosity,"298.15 K, 101.33 kPa, x2 = 0.804",0.3547 ± 0.011 mPa·s
same,viscosity,"298.15 K, 101.33 kPa, x2 = 0.9035",0.3272 ± 0.01 mPa·s
CCC(O)CC + CCCCCCC,viscosity,"293.4 K, 101 kPa, x1 = 0.201",0.531 ± 0.038 mPa·s
same,viscosity,"294 K, 101 kPa, x1 = 0.026",0.466 ± 0.034 mPa·s
same,viscosity,"294.1 K, 101 kPa, x1 = 0.101",0.489 ± 0.036 mPa·s
same,viscosity,"295.1 K, 101 kPa, x1 = 0.5",0.734 ± 0.049 mPa·s
CCCCCCCCC + CCCCCCC,viscosity,"298.15 K, 101.33 kPa, x2 = 0.1102",0.6128 ± 0.0084 mPa·s
same,viscosity,"298.15 K, 101.33 kPa, x2 = 0.2046",0.5921 ± 0.0081 mPa·s
same,viscosity,"298.15 K, 101.33 kPa, x2 = 0.3052",0.562 ± 0.0078 mPa·s
same,viscosity,"298.15 K, 101.33 kPa, x2 = 0.407",0.5372 ± 0.0075 mPa·s
same,viscosity,"298.15 K, 101.33 kPa, x2 = 0.5092",0.5104 ± 0.0072 mPa·s
same,viscosity,"298.15 K, 101.33 kPa, x2 = 0.6073",0.4838 ± 0.0069 mPa·s
same,viscosity,"298.15 K, 101.33 kPa, x2 = 0.7071",0.4588 ± 0.0066 mPa·s
same,viscosity,"298.15 K, 101.33 kPa, x2 = 0.8027",0.4312 ± 0.0063 mPa·s
same,viscosity,"298.15 K, 101.33 kPa, x2 = 0.8996",0.4081 ± 0.0061 mPa·s
CCCCCCCC/C=C\CCCCCCCC(=O)OCC(COC(=O)CCCCCCC/C=C\CCCCCCCC)OC(=O)CCCCCCC/C=C\CCCCCCCC + CCCCCCCC,viscosity,"293.15 K, 101.33 kPa, x1 = 0.000908",0.5531 ± 0.015 mPa·s
same,viscosity,"293.15 K, 101.33 kPa, x1 = 0.001916",0.5668 ± 0.016 mPa·s
same,viscosity,"293.15 K, 101.33 kPa, x1 = 0.004907",0.6068 ± 0.017 mPa·s
same,viscosity,"293.15 K, 101.33 kPa, x1 = 0.0101",0.6753 ± 0.018 mPa·s
same,viscosity,"293.15 K, 101.33 kPa, x1 = 0.02609",0.9348 ± 0.024 mPa·s
same,viscosity,"293.15 K, 101.33 kPa, x1 = 0.03555",1.11 ± 0.028 mPa·s
same,viscosity,"293.15 K, 101.33 kPa, x1 = 0.05997",1.638 ± 0.039 mPa·s
same,viscosity,"293.15 K, 101.33 kPa, x1 = 0.08297",2.268 ± 0.053 mPa·s
same,viscosity,"298.15 K, 101.33 kPa, x1 = 0.000908",0.5204 ± 0.015 mPa·s
same,viscosity,"298.15 K, 101.33 kPa, x1 = 0.001916",0.5329 ± 0.015 mPa·s
same,viscosity,"298.15 K, 101.33 kPa, x1 = 0.004907",0.5699 ± 0.016 mPa·s
same,viscosity,"298.15 K, 101.33 kPa, x1 = 0.0101",0.6331 ± 0.017 mPa·s
same,viscosity,"298.15 K, 101.33 kPa, x1 = 0.02609",0.8701 ± 0.022 mPa·s
same,viscosity,"298.15 K, 101.33 kPa, x1 = 0.03555",1.03 ± 0.026 mPa·s
same,viscosity,"298.15 K, 101.33 kPa, x1 = 0.05997",1.505 ± 0.036 mPa·s
same,viscosity,"298.15 K, 101.33 kPa, x1 = 0.08297",2.064 ± 0.049 mPa·s
same,viscosity,"303.15 K, 101.33 kPa, x1 = 0.000908",0.4903 ± 0.014 mPa·s
same,viscosity,"303.15 K, 101.33 kPa, x1 = 0.001916",0.502 ± 0.014 mPa·s
same,viscosity,"303.15 K, 101.33 kPa, x1 = 0.004907",0.536 ± 0.015 mPa·s
same,viscosity,"303.15 K, 101.33 kPa, x1 = 0.0101",0.5947 ± 0.016 mPa·s
same,viscosity,"303.15 K, 101.33 kPa, x1 = 0.02609",0.8126 ± 0.021 mPa·s
same,viscosity,"303.15 K, 101.33 kPa, x1 = 0.03555",0.9579 ± 0.024 mPa·s
same,viscosity,"303.15 K, 101.33 kPa, x1 = 0.05997",1.388 ± 0.034 mPa·s
same,viscosity,"303.15 K, 101.33 kPa, x1 = 0.08297",1.894 ± 0.045 mPa·s
same,viscosity,"308.15 K, 101.33 kPa, x1 = 0.000908",0.4628 ± 0.013 mPa·s
same,viscosity,"308.15 K, 101.33 kPa, x1 = 0.001916",0.4737 ± 0.014 mPa·s
same,viscosity,"308.15 K, 101.33 kPa, x1 = 0.004907",0.5055 ± 0.014 mPa·s
same,viscosity,"308.15 K, 101.33 kPa, x1 = 0.0101",0.5596 ± 0.015 mPa·s
same,viscosity,"308.15 K, 101.33 kPa, x1 = 0.02609",0.7605 ± 0.02 mPa·s
same,viscosity,"308.15 K, 101.33 kPa, x1 = 0.03555",0.8936 ± 0.023 mPa·s
same,viscosity,"308.15 K, 101.33 kPa, x1 = 0.05997",1.284 ± 0.031 mPa·s
same,viscosity,"308.15 K, 101.33 kPa, x1 = 0.08297",1.741 ± 0.042 mPa·s
same,viscosity,"313.15 K, 101.33 kPa, x1 = 0.000908",0.4377 ± 0.013 mPa·s
same,viscosity,"313.15 K, 101.33 kPa, x1 = 0.001916",0.4478 ± 0.013 mPa·s
same,viscosity,"313.15 K, 101.33 kPa, x1 = 0.004907",0.4774 ± 0.014 mPa·s
same,viscosity,"313.15 K, 101.33 kPa, x1 = 0.0101",0.5277 ± 0.015 mPa·s
same,viscosity,"313.15 K, 101.33 kPa, x1 = 0.02609",0.7134 ± 0.019 mPa·s
same,viscosity,"313.15 K, 101.33 kPa, x1 = 0.03555",0.8357 ± 0.022 mPa·s
same,viscosity,"313.15 K, 101.33 kPa, x1 = 0.05997",1.191 ± 0.029 mPa·s
same,viscosity,"313.15 K, 101.33 kPa, x1 = 0.08297",1.606 ± 0.038 mPa·s
CCCCCCCCC + CCCCCCCC,viscosity,"298.15 K, 101.33 kPa, x2 = 0.1092",0.631 ± 0.0086 mPa·s
same,viscosity,"298.15 K, 101.33 kPa, x2 = 0.2071",0.6264 ± 0.0086 mPa·s
same,viscosity,"298.15 K, 101.33 kPa, x2 = 0.3038",0.6069 ± 0.0083 mPa·s
same,viscosity,"298.15 K, 101.33 kPa, x2 = 0.4058",0.5951 ± 0.0082 mPa·s
same,viscosity,"298.15 K, 101.33 kPa, x2 = 0.5051",0.5768 ± 0.008 mPa·s
same,viscosity,"298.15 K, 101.33 kPa, x2 = 0.6076",0.5586 ± 0.0078 mPa·s
same,viscosity,"298.15 K, 101.33 kPa, x2 = 0.7044",0.5497 ± 0.0077 mPa·s
same,viscosity,"298.15 K, 101.33 kPa, x2 = 0.8047",0.5318 ± 0.0075 mPa·s
same,viscosity,"298.15 K, 101.33 kPa, x2 = 0.9025",0.5116 ± 0.0073 mPa·s
